Like-named read-outs stand apart in the source and are kept apart here.
Tests used:
[1] = tested on: A549 cell non-small cell lung cancer cell line; experiment: growth inhibition of tumor cells in vitro, A549; type: cell-based, human; settings: Homo sapiens
From the text: (§1) We tested compounds target a variety of tumor cell for the growth inhibition to show its antitumor activity by using the method of the field technicians known. Chooses the tumor cell lines include: A549 cell non-small cell lung cancer cell line (people), K562 cells (human chronic myeloid leukemia cells), NCI-H1975 cells (non-small cell lung adenocarcinoma cancer cell), MDA-MB-231 cells (human breast cancer cells) and HCT-116 cells (human colon cancer cells).

[2] = tested on: K562 cells (human chronic myeloid leukemia cells); experiment: growth inhibition of tumor cells in vitro, K562; type: cell-based
From the text: as §1

[3] = biological target: heat shock protein (HSP90); experiment: macromolecular interaction on chip, HSP90; type: binding; settings: compound fixed on the chip; HSP90 100 nM
Procedure: (§2) The experimental scheme: 1. Fixed the compounds on the chip:
(§3) Mobile phase were EGF (1 μM), FGF (1 μM), HSP90 (100 nM), FKBP12 (100 nM).
(§4) Detection whether small molecule compounds combined with the provided protein of heat shock protein (HSP90), epidermal growth factor (EGF) and fibroblast growth factor (FGF); and provide relevant data of combined dynamics.

[4] = biological target: T1, epidermal growth factor (EGF) (Homo sapiens, UniProt P01133); experiment: macromolecular interaction on chip, EGF; type: binding; settings: for KD EGF: compound fixed on the chip, EGF 1 μM
T1 construct: epidermal growth factor (EGF)
T1 sequence (P01133 971-1023 limits assumed, species assumed): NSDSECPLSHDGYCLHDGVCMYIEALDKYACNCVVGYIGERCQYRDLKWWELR
Procedure: as §2, §3, §4

[5] = biological target: fibroblast growth factor (FGF); experiment: macromolecular interaction on chip, FGF; type: binding; settings: compound fixed on the chip; FGF 1 μM
Procedure: as §2, §3, §4

[6] = A549, A549 cell line, read-out: IC50 A549
[7] = K562 cell line, read-out: IC50 K562
[8] = A549, read-out: IC50 A549, A549 cell line

Row | SMILES | melting point [°C] | IC50 [1, 6] [nM] | IC50 [2, 7] [nM] | KD HSP90 [3] | KD EGF [4] | KD FGF [5] | also measured
1 | CC[C@@]1(O)C(=O)OCc2c1cc1n(c2=O)Cc2c-1nc1cc3c(cc1c2CCc1ccc(N2CCCCC2)cc1)OCO3 | > 250 |  |  |  |  |  | 
2 | CC[C@@]1(O)C(=O)OCc2c1cc1n(c2=O)Cc2c-1nc1cc3c(cc1c2CCc1cc(F)c(N2CCCC2)c(F)c1)OCO3 | > 250 |  |  |  |  |  | 
3 | CC[C@@]1(O)C(=O)OCc2c1cc1n(c2=O)Cc2c-1nc1cc3c(cc1c2/C=C/C=C/c1ccccc1)OCO3 [Compound 1, 20(S)-7-(styrene-butadiene-yl)-10,11-methylenedioxy-camptothecin] | 206 to 214 | 763 ± 5.05 | 1652 ± 10.6 | No combination | No combination | No combination | 
4 | CC[C@@]1(O)C(=O)OCc2c1cc1n(c2=O)Cc2c-1nc1cc3c(cc1c2/C=C/C=C/c1ccc(OC)cc1)OCO3 [Compound 2] |  | 1268 ± 4.65 | 2693 ± 9.63 | No combination | No combination | No combination | 
5 | CC[C@@]1(O)C(=O)OCc2c1cc1n(c2=O)Cc2c-1nc1cc3c(cc1c2/C=C/c1ccc(F)cc1)OCO3 [Compound 3, 20(S)-7-(4-fluorostyryl)-10,11-methylenedioxy-camptothecin] | > 250 |  | 66 ± 3.65 | No combination | can combine | No combination | Kd [4]: 5.3 nM
6 | CC[C@@]1(O)C(=O)OCc2c1cc1n(c2=O)Cc2c-1nc1cc3c(cc1c2/C=C/c1cccc(F)c1)OCO3 [Compound 4, 20(S)-7-(3-fluorostyryl)-10,11-methylenedioxy-camptothecin] | > 250 |  |  | No combination | No combination | No combination | 
7 | CC[C@@]1(O)C(=O)OCc2c1cc1n(c2=O)Cc2c-1nc1cc3c(cc1c2/C=C/c1ccccc1F)OCO3 [Compound 5, 20(S)-7-(2-fluorostyryl)-10,11-methylenedioxy-camptothecin] | > 250 |  |  | No combination | No combination | No combination | 
8 | CC[C@@]1(O)C(=O)OCc2c1cc1n(c2=O)Cc2c-1nc1cc3c(cc1c2/C=C/c1ccc(F)c(F)c1)OCO3 [Compound 6] |  | 530 ± 7.6 | 757 ± 8.62 | No combination | No combination | can combine | Kd [5]: 8.99 nM
9 | CC[C@@]1(O)C(=O)OCc2c1cc1n(c2=O)Cc2c-1nc1cc3c(cc1c2/C=C/c1cc(F)c(F)c(F)c1)OCO3 [Compound 7] |  | 1904 ± 8.64 | 1772 ± 9.68 | No combination | can combine | can combine | Kd [4]: 51.5 nM; Kd [5]: 53.6 nM
10 | CC[C@@]1(O)C(=O)OCc2c1cc1n(c2=O)Cc2c-1nc1cc3c(cc1c2CCc1ccc(N2CCOCC2)cc1)OCO3 [Compound 8, 20(S)-7-(4-(4-morpholino)phenethyl)-10,11-methylenedioxy-camptothecin] |  |  |  | No combination | No combination | No combination | 
11 | CC[C@@]1(O)C(=O)OCc2c1cc1n(c2=O)Cc2c-1nc1cc3c(cc1c2CCc1ccc(N2CCCC2)cc1)OCO3 [Compound 9, 20(S)-7-(4-(pyrrolidin-1-yl)phenethyl)-10,11-methylenedioxy-camptothecin] | 205 to 207 | 1522 ± 10.5 | 1366 ± 12.5 | No combination | No combination | No combination | 
12 | CC[C@@]1(O)C(=O)OCc2c1cc1n(c2=O)Cc2c-1nc1cc3c(cc1c2CCc1ccc(N2CCOCC2)c(F)c1)OCO3 [Compound 10, 20(S)-7-(3-fluoro-4-(4-morpholino)phenethyl)-10,11-methylenedioxy-camptothecin] | > 250 | 1223 ± 8.75 | 564 ± 9.85 | No combination | No combination | No combination | 
13 | CC[C@@]1(O)C(=O)OCc2c1cc1n(c2=O)Cc2c-1nc1cc3c(cc1c2CCc1ccccc1N1CCCC1)OCO3 [Compound 16, 20(S)-7-(2-(pyrrolidin-1-yl)phenethyl)-10,11-methylenedioxy-camptothecin] | 139 to 140 |  | 115 ± 7.6 |  |  |  | 
14 | CC[C@@]1(O)C(=O)OCc2c1cc1n(c2=O)Cc2c-1nc1cc3c(cc1c2CCc1cc(F)c(N2CCOCC2)c(F)c1)OCO3 [Compound 18, 20(S)-7-(3,5-difluoro-4-(4-morpholino)phenethyl)-10,11-methylenedioxy-camptothecin] | 246 to 247 |  | 489 ± 6.65 |  |  |  | 
15 | CC[C@@]1(O)C(=O)OCc2c1cc1n(c2=O)Cc2c-1nc1cc3c(cc1c2CCc1ccc(N2CCSCC2)cc1)OCO3 [Compound 20, 20(S)-7-(4-(4-thiomorpholino)phenethyl)-10,11-methylenedioxy-camptothecin] | 154 to 156 |  | 145 ± 4.35 |  |  |  | 
16 | CC[C@@]1(O)C(=O)OCc2c1cc1n(c2=O)Cc2c-1nc1cc3c(cc1c2-c1ccc(F)cc1)OCO3 [Compound 32] |  |  | 963 ± 7.61 | No combination | No combination | No combination | 
17 | CC[C@@]1(O)C(=O)OCc2c1cc1n(c2=O)Cc2c-1nc1cc3c(cc1c2-c1cc(C(F)(F)F)cc(C(F)(F)F)c1)OCO3 [Compound 33] |  | 174 ± 8.62 | 702 ± 8.87 |  |  |  | 
18 | CC[C@@]1(O)C(=O)OCc2c1cc1n(c2=O)Cc2c-1nc1cc3c(cc1c2-c1ccccc1)OCO3 [Compound 36] |  | 422 ± 10.3 | 1327 ± 8.96 |  |  |  | 
19 | CC[C@@]1(O)C(=O)OCc2c1cc1n(c2=O)Cc2c-1nc1cc3c(cc1c2-c1ccc(C(C)(C)C)cc1)OCO3 [Compound 37] |  |  |  |  |  |  | IC50 [1, 8]: 387 ± 3.75 nM; IC50 ([2]; K562, read-out: IC50 K562): 785 ± 9.23 nM
20 | CC[C@@]1(O)C(=O)OCc2c1cc1n(c2=O)Cc2c-1nc1cc3c(cc1c2-c1ccc2c(c1)OCO2)OCO3 [Compound 38] |  |  |  |  |  |  | IC50 [1, 8]: 282 ± 7.77 nM; IC50 ([2]; K562, read-out: IC50 K562): 202 ± 7.32 nM
21 | CC[C@@]1(O)C(=O)OCc2c1cc1n(c2=O)Cc2c-1nc1cc3c(cc1c2-c1ccc(F)cc1F)OCO3 [Compound 40] |  |  |  |  |  |  | IC50 [1, 8]: 836 ± 8.69 nM; IC50 ([2]; K562, read-out: IC50 K562): 1168 ± 9.69 nM
22 | CC[C@@]1(O)C(=O)OCc2c1cc1n(c2=O)Cc2c-1nc1cc3c(cc1c2-c1ccccc1F)OCO3 [Compound 41] |  |  |  |  |  |  | IC50 ([2]; K562, read-out: IC50 K562): 1037 ± 10.2 nM
23 | CC[C@@]1(O)C(=O)OCc2c1cc1n(c2=O)Cc2c-1nc1cc3c(cc1c2-c1ccc(F)c(F)c1)OCO3 [Compound 42] |  |  | 181 ± 8.55 |  |  |  | 
24 | CC[C@@]1(O)C(=O)OCc2c1cc1n(c2=O)Cc2c-1nc1cc3c(cc1c2N1CCOCC1)OCO3 [Compound 43, 20(S)-7-morpholino-10,11-methylenedioxy-camptothecin] | > 250 |  |  |  |  |  | IC50 ([2]; K562, read-out: IC50 K562): 837 ± 9.44 nM
25 | CC[C@@]1(O)C(=O)OCc2c1cc1n(c2=O)Cc2c-1nc1cc3c(cc1c2CCN1CCCCC1)OCO3 [Compound 52, 20(S)-7-(2-(piperidin-1-yl)ethyl)-10,11-methylenedioxy-camptothecin] |  |  |  | No combination | No combination | can combine | Kd [5]: 7.15 nM
